According to patent US8507528B2, “2-alkyl-indazole compounds for the treatment of certain cns-related disorders” (Aziende Chimiche Riunite Angelini Francesco A.C.R.A.F. …, priority 2006, dated 2013):
Where a name gives a salt, the structure may show the parent alone. Read-outs that look alike come from different tables or passages of the source.

Key:
[1] = biological target: T1, rat 5-HT2A serotonin receptor (Rattus norvegicus, UniProt P14842); test: biochemical
Description: (§2) The non-specific binding was measured in the presence of 10 μM methysergide. The assay was conducted in Tris-HCl 50 mM buffer (pH 7.4 at 37° C.), with incubation for 2 hours at 37° C. The test compounds were dissolved in DMSO, then diluted in buffer (final DMSO concentration 0.01%) and plated on 96-well plates. Methysergide and/or ketanserin were used as reference compounds.
(§3) Binding is initiated by addition of 200 μl of homogenate (450 μg/ml protein content); after incubation, the membranes were filtered on glass-fibre filters (GF/B) (Unifilter, Packard) treated with 0.3% polyethyleneimine. Then the filters were washed with buffer solution and stove-dried for 30 minutes at 45° C. The scintillation liquid was added to each well, and 10 hours later the radioactivity was measured for 1 minute using a TopCount (Packard). The test compounds were tested in duplicate at 8 concentrations (from 10^-12 to 10^-5 M).
(§4) The IC50 values for each compound were calculated using non-linear regression analysis (GraphPad PRISM software) and the inhibition constants Ki were determined using the equation described by Cheng Y. and Prussof W. H. (1973) “Relationship between the inhibition constant (Ki) and the concentration of inhibitor which causes 50 percent inhibition (150) of an enzyme reaction.” Biochem. Pharmacol. 22: 3099-3108.

[2] = biological target: T2, human serotonin 5-HT2A receptor (Homo sapiens, UniProt P28223); test: Test B: binding to the human serotonin 5-HT2A receptor; details: human recombinant cells, six concentrations; read-out: (h)5-HT2a (pKi) (converted)
T2 construct: expressed in transfected cells
Description: (§1) These tests measured the percentage inhibition induced by the compounds of formula (I) according to the present invention at six different concentrations, from which the pKi values of the compounds in relation to the individual receptors were obtained.
Binding to the human serotonin 5-HT2A receptor was effected by the standard methodology described in Bonhaus D. W., Bach C., De Souza A., Salazar F. H., Matsuoka B. D., Zuppan P., Chan H. W., Eglen R. M. (1995) “The pharmacology and distribution of human 5-hydroxytryptamine2B (5-HT2B) receptor gene products: comparison with 5-HT2A and 5-HT2C receptors.” Br. J. Pharmacol. 115(4): 622-628; and Saucier C., Albert P. R. (1997) “Identification of an endogenous 5-hydroxytryptamine2A receptor in NIH-3T3 cells: agonist-induced down-regulation involves decreases in receptor RNA and number.” J. Neurochem. 68(5): 1998-2011. The test compounds were tested in duplicate at a single concentration of 1 μM and then at six concentrations to find the pKi values of the individual compounds.

[3] = biological target: T3, serotonin 5-HT2C receptor (Homo sapiens, UniProt P28335); test: Test B: binding to the serotonin 5-HT2C receptor; details: human recombinant cells (CHO-K1), six concentrations; read-out: (h)5-HT2c (pKi) (converted)
T3 construct: expressed in transfected cells; host or cells: CHO-K1
T3 sequence (P28335 33-458): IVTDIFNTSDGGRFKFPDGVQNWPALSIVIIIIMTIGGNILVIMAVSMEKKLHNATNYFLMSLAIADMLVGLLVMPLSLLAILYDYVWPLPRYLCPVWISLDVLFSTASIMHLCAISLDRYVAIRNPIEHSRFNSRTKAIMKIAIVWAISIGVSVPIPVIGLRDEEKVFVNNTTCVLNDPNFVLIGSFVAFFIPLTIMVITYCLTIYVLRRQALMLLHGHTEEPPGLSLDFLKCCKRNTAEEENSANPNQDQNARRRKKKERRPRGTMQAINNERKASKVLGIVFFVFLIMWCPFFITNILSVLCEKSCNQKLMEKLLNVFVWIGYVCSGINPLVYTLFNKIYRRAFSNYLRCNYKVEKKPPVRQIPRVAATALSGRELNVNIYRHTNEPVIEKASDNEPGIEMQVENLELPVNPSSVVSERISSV
Description: as §1
Binding to the serotonin 5-HT2C receptor was effected using the standard methodology described in: Wolf W. A. and Schutz J. S. (1997) “The serotonin 5-HT2C receptor is a prominent serotonin receptor in basal ganglia: evidence from functional studies on serotonin-mediated phosphoinositide hydrolysis.” J. Neurochem. 69: 1449-1458. CHO-K1 recombinant cells for expression of the human enzyme were used as starting material, and SB242084 as reference compound. The test compounds were tested in duplicate at a single concentration of 1 μM and then at six concentrations to find the pKi values of the individual compounds.

[4] = biological target: T1, rat 5-HT2A serotonin receptor
Description: as §2, §3, §4

T2 sequence (P28223 whole entry): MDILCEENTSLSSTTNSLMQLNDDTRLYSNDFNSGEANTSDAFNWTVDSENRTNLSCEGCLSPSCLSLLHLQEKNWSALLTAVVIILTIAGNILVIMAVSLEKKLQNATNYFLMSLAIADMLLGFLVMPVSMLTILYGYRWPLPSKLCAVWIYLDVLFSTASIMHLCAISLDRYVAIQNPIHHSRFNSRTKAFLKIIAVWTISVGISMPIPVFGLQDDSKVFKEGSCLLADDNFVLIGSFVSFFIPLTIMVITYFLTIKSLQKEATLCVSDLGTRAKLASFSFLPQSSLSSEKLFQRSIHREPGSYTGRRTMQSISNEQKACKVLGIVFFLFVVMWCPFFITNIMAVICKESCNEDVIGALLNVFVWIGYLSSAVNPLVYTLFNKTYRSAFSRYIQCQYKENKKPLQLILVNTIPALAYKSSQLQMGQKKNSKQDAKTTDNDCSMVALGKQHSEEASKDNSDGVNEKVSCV
T1 sequence (P14842 whole entry): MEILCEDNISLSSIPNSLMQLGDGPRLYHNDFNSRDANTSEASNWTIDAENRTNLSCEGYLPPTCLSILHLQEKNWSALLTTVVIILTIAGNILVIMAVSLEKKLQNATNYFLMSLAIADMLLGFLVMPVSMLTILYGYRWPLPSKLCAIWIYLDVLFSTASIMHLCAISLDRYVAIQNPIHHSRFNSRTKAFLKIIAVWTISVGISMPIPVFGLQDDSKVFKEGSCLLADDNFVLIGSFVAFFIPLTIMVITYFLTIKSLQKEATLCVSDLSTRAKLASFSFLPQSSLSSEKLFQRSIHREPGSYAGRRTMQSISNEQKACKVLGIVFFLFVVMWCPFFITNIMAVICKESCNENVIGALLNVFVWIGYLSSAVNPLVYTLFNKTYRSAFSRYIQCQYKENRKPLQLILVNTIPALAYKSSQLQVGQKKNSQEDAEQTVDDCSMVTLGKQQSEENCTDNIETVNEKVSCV

melting point	Ki [1] [nM]	Compound	other results
	631	Cn1nc2ccccc2c1C(=O)N1CCC(CNCCc2ccc(F)cc2F)CC1 [Compound 9, 2-(2,4-Difluorophenyl)-N-({1-[(2-methyl-2H-indazole-3-yl)carbonyl]piperidin-4-yl}methyl)ethanamine hydrochloride]	
117 to 119 °C		Cn1nc2ccccc2c1C(=O)NC1CCN(CCc2ccc(F)cc2)C1 (stereo not shown) [Compound 15, N-{1-[2-(4-fluorophenyl)ethyl]pyrrolidin-3-yl}-2-methyl-2H-indazole-3-carboxamide]	
198 to 199 °C	263	Cl.Cn1nc2ccccc2c1C(=O)N1CCC(CNCCc2ccc(F)cc2)CC1 [Compound 10, 2-(4-Fluorophenyl)-N-({1-[(2-methyl-2H-indazol-3-yl)carbonyl)piperidin-4-yl}methyl]ethanamine hydrochloride]	
162 to 165 °C		Cn1nc2ccccc2c1C(=O)NC1CCN(CCCc2ccc(F)cc2)CC1 [Compound 22, N-{1-[3-(4-fluorophenyl)propyl]piperidin-4-yl}-2-methyl-2H-indazole-3-carboxamide]	
167 to 169 °C		Cn1nc2ccccc2c1C(=O)NC1CCN(Cc2ccccc2)CC1 [Compound 21, N-(1-benzylpiperidin-4-yl)-2-methyl-2H-indazole-3-carboxamide]	
193 to 194 °C	91.2	COCCn1nc2ccccc2c1C(=O)NCC1CCN(CCc2ccc(F)cc2)CC1.Cl [Compound 7, N-({1-[2-(4-Fluorophenyl)ethyl]piperidin-4-yl}methyl)-2-(2-methoxyethyl)-2H-indazole-3-carboxamide hydrochloride]	

Continued, compound first:

Compound	melting point	Ki [1] [nM]	other results
Cn1nc2ccccc2c1C(=O)NCC1CCN(CCc2ccc(F)cc2F)CC1 [Compound 23, N-({1-[2-(2,4-difluorophenyl)ethyl]piperidin-4-yl}methyl)-2-methyl-2H-indazole-3-carboxamide]	122 to 126 °C		
Cn1nc2ccccc2c1C(=O)NCCCN1CCC(c2ccc(F)cc2)CC1 [Compound 20, N-{3-[4-(4-fluorophenyl)piperidin-1-yl]propyl}-2-methyl-2H-indazole-3-carboxamide]	136 to 140 °C		
COc1ccc(CCN2CCC(CNC(=O)c3c4ccccc4nn3C)CC2)cc1.Cl [Compound 5, N-({1-[2-(4-Methoxyphenyl)ethyl]piperidin-4-yl}methyl)-2-methyl-2H-indazole-3-carboxamide hydrochloride]	80 °C (dec.)	1580	
Cn1nc2ccccc2c1C(=O)NCC1CCN(CCc2ccc(C(F)(F)F)cc2)CC1 [Compound 17, 2-methyl-N-[(1-{2-[4-(trifluoromethyl)phenyl]ethyl}piperidin-4-yl)methyl]-2H-indazole-3-carboxamide]	174 to 176 °C		
COc1ccc2nn(C)c(C(=O)NCC3CCN(CCc4ccc(O)cc4)CC3)c2c1 [Compound 4, N-({1-[2-(4-Hydroxyphenyl)ethyl]piperidin-4-yl}methyl)-5-methoxy-2-methyl-2H-indazole-3-carboxamide]	218 to 219 °C (dec.)	47.9	
Cn1nc2ccccc2c1C(=O)NC1CCN(CCc2ccccc2F)CC1 [Compound 18, N-{1-[2-(2-fluorophenyl)ethyl)piperidin-4-yl}-2-methyl-2H-indazole-3-carboxamide]	164 to 166 °C		
Cn1nc2ccccc2c1C(=O)NCC1CCN(CCc2ccc(O)cc2)CC1 [Compound 3, N3-({1-[2-(4-Hydroxyphenyl)ethyl]hexahydro-4-pyridinyl}methyl-2-methyl-2H-3-indazolecarboxamide hydrochloride hydrate]		47.9	Ki [2]: 2.09 nM; Ki [3]: 148 nM
N,2-Dimethyl-N-{[1-(2-phenylethyl)piperidin-4-yl]methyl}-2H-indazole-3-carboxamide hydrochloride hemihydrate [Compound 2]			Ki [4]: 813 nM
Cn1nc2ccccc2c1C(=O)NCC1CCN(CCc2ccccc2)CC1 [Compound 1, 2-Methyl-N-{[1-(2-phenylethyl)piperidin-4-yl]methyl}-2H-indazole-3-carboxamide hydrochloride hydrate]		32.4	Ki [2]: 2.63 nM; Ki [3]: 89.1 nM
Cl.Cn1nc2ccccc2c1C(=O)NC1CCN(CCc2ccc(F)cc2)CC1	224 to 228 °C		
Cl.Cn1nc2ccccc2c1C(=O)NCC1CCN(CCc2ccc(F)cc2)CC1 [Compound 8, N-({1-[2-(4-Fluorophenyl)ethyl]piperidin-4-yl}methyl)-2-methyl-2H-indazole-3-carboxamide hydrochloride]	208 to 209 °C	15.8	Ki [2]: 1.62 nM; Ki [3]: 53.7 nM
